For orientation: melting point means the temperature of the solid-liquid transition.

Where two headings read alike, the source gives them in different places.

Series [1] concerns the target DYRK1A (Rattus norvegicus, UniProt Q63470). As to the kind of experiment: DYRK1A kinase assay (myelin basic protein). The class given is biochemical.
For series [2], the target named is GSK-3α/β. Nature of the series: GSK-3α/β kinase assay (GS-1 peptide). The class given is biochemical, porcine. As to conditions: 15 μM ATP, 30° C. Here is the method: After incubating at 30° C. for 30 (thirty) minutes, the 25 μl aliquots of the supernatant were treated as described above.
The target of series [3] is CDK1/cyclin B. Nature of the series: CDK1/cyclin B kinase assay (histone H1, [γ-33P]-ATP). The settings on record: read-out: IC50 CDK1/cyclin B, 15 μM ATP, 30° C.
Procedure: Controls were prepared with appropriate dilutions of dimethyl sulfoxide.
After incubating at 30° C. for 30 minutes, 25 μl aliquots of the supernatant were spotted onto filters made of Whatman P81 phosphocellulose paper and, 20 seconds later, the filters were washed 5 times (for at least 5 (five) minutes each time) in a solution of 10 ml of phosphoric acid/liter of water. The wet filters were subjected to counting in the presence of an ACS scintillation fluid from Amersham.
In series [4] the target is CK1δ/ε. Nature of the series: CK1δ/ε kinase assay (CK1-specific peptide). The class given is biochemical, porcine. As to conditions: 15 μM ATP, 30° C. The procedure: CK1δ/ε was purified from porcine brain by affinity chromatography on an immobilized axin fragment. It was assayed as described for CDK1 but using a CK1-specific peptide substrate.
In series [5] the test system is SH-SY5Y cells. Nature of the series: Cell survival, MTS reduction, SH-SY5Y. The class given is cell-based. The settings on record: Homo sapiens, Table 2, exposed for 24 hours, read-out: IC50 survival of SH-SY5Y cells (MTS reduction). Here is the method: The human neuroblastoma cell line SH-SY5Y was grown in a DMEM medium with L-glutamine originating from Invitrogen (Cergy Pontoise, France), antibiotics and 10% by volume of FCS originating from Invitrogen. […] These compounds were also tested at various concentrations with regard to their effects on SH-SY5Y and HEK293 cells. […] The IC50 values were calculated from the dose-response curves and are given in micromoles (mean±standard deviation of two independent measurements carried out in triplicate). […] The survival of the cells was estimated by the assaying of the degree of reduction of MTS induced by this exposure. […] The ICS© values were calculated from dose-response curves and are given in micromoles in table 3 below.

Series [6] concerns the target T1, CDK2/cyclin A (Homo sapiens, UniProt P24941).
T1 construct: made in house; host or cells: insect cells
As to the kind of experiment: CDK2/cyclin A kinase assay. The class given is biochemical. The settings on record: 15 μM ATP, 30° C., histone H1; read-out: IC50 CDK2/cyclinA. The procedure:
CDK2/cyclin A (human, recombinant, expressed in insect cells) was assayed as described for CDK1/cyclin B.

Series [7] addresses CDK5/p25 (Homo sapiens, UniProt Q00535). Nature of the series: CDK5/p25 kinase assay. The class given is biochemical, mammalian. Here is the method: CDK5/p25 was reconstituted by mixing equal amounts of recombinant mammalian CDK5 and p25 expressed in E. coli as GST (glutathione S-transferase) fusion protein and purified by affinity chromatography on glutathione-agarose (vectors provided by Doctor L. H. Tsai) (p25 is a truncated version of p35, the 35-kDa CDK5 activator). Its activity was assayed with histone H1 in buffer C as described for CDK1/cyclin B.

The target in series [8] is T2, CDK9/cyclin T (Homo sapiens, UniProt P50750).
T2 construct: made in house; host or cells: insect cells
T2 sequence (P50750 whole entry): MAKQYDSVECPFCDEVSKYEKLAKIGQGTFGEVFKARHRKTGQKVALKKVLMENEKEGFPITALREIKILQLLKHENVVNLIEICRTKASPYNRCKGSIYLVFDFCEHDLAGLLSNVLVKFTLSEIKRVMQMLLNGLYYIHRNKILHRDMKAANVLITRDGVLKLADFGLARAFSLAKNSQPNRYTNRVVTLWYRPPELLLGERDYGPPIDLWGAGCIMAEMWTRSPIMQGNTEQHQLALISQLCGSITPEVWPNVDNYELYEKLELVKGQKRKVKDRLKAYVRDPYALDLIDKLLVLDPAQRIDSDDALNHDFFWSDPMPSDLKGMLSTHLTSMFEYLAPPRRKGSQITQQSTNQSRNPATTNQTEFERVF
T2 sequence (O60563 whole entry partner): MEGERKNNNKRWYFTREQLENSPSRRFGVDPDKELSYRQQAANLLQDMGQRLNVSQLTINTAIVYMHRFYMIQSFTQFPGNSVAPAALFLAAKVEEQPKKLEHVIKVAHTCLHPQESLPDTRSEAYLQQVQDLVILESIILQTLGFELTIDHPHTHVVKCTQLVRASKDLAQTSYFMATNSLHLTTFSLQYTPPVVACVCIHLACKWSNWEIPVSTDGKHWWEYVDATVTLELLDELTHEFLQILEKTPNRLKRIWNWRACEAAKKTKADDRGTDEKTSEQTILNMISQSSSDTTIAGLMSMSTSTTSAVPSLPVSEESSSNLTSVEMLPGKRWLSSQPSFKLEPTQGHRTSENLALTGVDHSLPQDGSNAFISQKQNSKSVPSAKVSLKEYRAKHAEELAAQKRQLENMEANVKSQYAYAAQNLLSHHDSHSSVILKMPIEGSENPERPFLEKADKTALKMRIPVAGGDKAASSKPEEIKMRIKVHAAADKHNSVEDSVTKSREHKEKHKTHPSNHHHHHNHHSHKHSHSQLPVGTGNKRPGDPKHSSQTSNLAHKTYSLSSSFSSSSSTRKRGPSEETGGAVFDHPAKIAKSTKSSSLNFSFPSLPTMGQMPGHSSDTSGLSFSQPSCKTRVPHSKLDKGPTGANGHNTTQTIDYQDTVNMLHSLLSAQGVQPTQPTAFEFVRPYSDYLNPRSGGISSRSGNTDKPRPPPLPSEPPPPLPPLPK
Nature of the series: CDK9/cyclin T kinase assay. The class given is biochemical. As to conditions: 15 μM ATP, 30° C., pRB fragment.

The mark [9] stands for this setting: 15 μM ATP, 30° C., myelin basic protein, read-out: IC50 DYRK1A.
The mark [10] stands for this setting: 15 μM ATP, 30° C., histone H1, read-out: IC50 CDK5/p25.

Chain of CDK5/p25 (Q00535 whole entry, species assumed, the tested form may be a part): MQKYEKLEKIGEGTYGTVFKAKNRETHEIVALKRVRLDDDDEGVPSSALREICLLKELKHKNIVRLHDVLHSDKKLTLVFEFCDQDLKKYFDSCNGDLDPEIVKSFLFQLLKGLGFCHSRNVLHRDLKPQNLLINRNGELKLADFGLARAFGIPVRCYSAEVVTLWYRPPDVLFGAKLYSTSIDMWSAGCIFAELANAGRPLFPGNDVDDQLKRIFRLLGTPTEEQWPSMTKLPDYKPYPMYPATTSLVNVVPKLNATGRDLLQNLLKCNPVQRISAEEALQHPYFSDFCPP
Chain of CDK5/p25 (Q15078 99-307 partner limits assumed, species assumed): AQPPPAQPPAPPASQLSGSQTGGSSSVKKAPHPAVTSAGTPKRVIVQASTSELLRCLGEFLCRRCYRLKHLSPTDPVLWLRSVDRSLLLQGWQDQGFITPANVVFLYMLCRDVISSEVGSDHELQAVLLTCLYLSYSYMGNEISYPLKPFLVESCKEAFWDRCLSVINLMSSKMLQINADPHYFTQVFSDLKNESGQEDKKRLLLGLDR

On to `CCOc1ccnc2[nH]cc(-c3ccnc(N)n3)c12` [Meriolin 4, 3-[(2-amino)pyrimidin-4-yl]-4-ethoxy-1H-pyrrolo[2,3-b]pyridine], for which the IC50 in series [1] (setting [9]) turned out to be 0.032 µM; in [2], 0.03 µM; in series [3] it was 0.01 µM; in series [4], 0.1 µM; in series [5], 0.081 µM.

For `COc1cc(Br)nc2[nH]cc(-c3ccnc(N)n3)c12` [Meriolin 4n, 3-[(2-amino)pyrimidin-4-yl]-6-bromo-4-methoxy-1H-pyrrolo[2,3-b]pyridine], the melting point is more than 210 °C.

For `CCCOc1ccnc2[nH]cc(-c3ccnc(N)n3)c12` [Meriolin 5, 3-[(2-amino)pyrimidin-4-yl]-4-propoxy-1H-pyrrolo[2,3-b]pyridine], the IC50 in series [1] (setting [9]) was 0.037 µM; in series [2], 0.025 µM; in series [3], 0.007 µM; in series [4], 0.2 µM; in series [5] it was 0.026 µM.

In the case of `CC(C)Oc1ccnc2[nH]cc(-c3ccnc(N)n3)c12` [Meriolin 6, 3-[(2-amino)pyrimidin-4-yl]-4-(1-methylethoxy)-1H-pyrrolo[2,3-b]pyridine], the IC50 turned out to be 0.021 µM in [2], 0.008 µM in series [3] and 0.14 µM in series [4].

Consider `COCCOc1ccnc2[nH]cc(-c3ccnc(N)n3)c12` [Meriolin 7, 3-(2-aminopyrimidin-4-yl)-4-(2-methoxyethoxyl)-1H-pyrrolo[2,3-b]pyridine], for which the IC50 was 63 µM in [2]; more than 10 µM in series [6]; 35 µM in series [3]; 100 µM in series [4]; more than 100 µM in series [5].

For the molecule `Cn1cc(-c2ccnc(N)n2)c2c(O)ccnc21` [Meriolin 8, 3-[(2-amino)pyrimidin-4-yl]-4-hydroxy-1-methyl-1H-pyrrolo[2,3-b]pyridine], the IC50 was 1.2 µM in series [1] (setting [9]); 4.6 µM in series [2]; 1.2 µM in series [3]; 2.3 µM in series [4]; more than 30 µM in [5].

Turning to `COc1ccnc2c1c(-c1ccnc(N)n1)cn2C` [Meriolin 9, 3-[(2-amino)pyrimidin-4-yl]-4-methoxy-1-methyl-1H-pyrrolo[2,3-b]pyridine], the IC50 in [3] stood at 25 µM.

In the case of `Nc1nccc(-c2c[nH]c3nccc(Cl)c23)n1` [Meriolin 10, 3-[(2-amino)pyrimidin-4-yl]-4-chloro-1H-pyrrolo[2,3-b]pyridine], the IC50 in series [1] (setting [9]) came to 0.13 µM; in series [2] it was 2 µM; in [3] it was 0.24 µM; in [4] it was 3 µM; in [5] it was 1.92 µM.

Consider `COc1ccnc2[nH]cc(-c3ccnc(SC)n3)c12` [Meriolin 12, 4-methoxy-3-[2-(methylsulfanyl)pyrimidin-4-yl]-1H-pyrrolo[2,3-b]pyridine, reference compound], for which the IC50 is 1 µM in [1] (setting [9]); 7 µM in series [2]; 1.8 µM in [3]; 0.6 µM in [4]; more than 100 µM in [5].

Consider `Oc1ccnc2[nH]cc(-c3ccncn3)c12` [Meriolin 13, 3-(pyrimidin-4-yl)-4-hydroxy-1H-pyrrolo[2,3-b]pyridine], for which the IC50 worked out at 1.8 µM in series [2] and 28 µM in series [5].

Regarding `COc1ccnc2[nH]cc(-c3ccncn3)c12` [Meriolin 14, 4-methoxy-3-(pyrimidin-4-yl)-1H-pyrrolo[2,3-b]pyridine], the IC50 in [1] (setting [9]) came to 0.23 µM; in series [2], 1.1 µM; in [3], 1.3 µM; in [4], 0.6 µM; in series [5] it was 10.2 µM.

On to `Nc1nccc(-c2c[nH]c3nccc(OCc4ccccc4)c23)n1` [Meriolin 15, 3-[(2-amino)pyrimidin-4-yl]-4-(benzyloxy)-1H-pyrrolo[2,3-b]pyridine], for which the melting point was more than 210 °C. In addition, the IC50 in series [1] (setting [9]) was determined as 0.04 µM. This molecule yielded an IC50 in series [2] of 0.0033 µM. Moreover, in series [7] (setting [10]), the IC50 was determined as 0.002 µM. The molecule also returned an IC50 in series [8] of 0.0072 µM. The IC50 in [6] came out at 0.0016 µM. The IC50 in series [3] worked out at 0.0023 µM. Moreover, the IC50 in series [4] came out at 0.13 µM. In addition, the IC50 in [5] amounted to 0.013 µM.

With `Nc1nccc(-c2c[nH]c3nccc(OCC4CCCCC4)c23)n1` [Meriolin 16, 3-[(2-amino)pyrimidin-4-yl]-4-(cyclohexylmethoxy)-1H-pyrrolo[2,3-b]pyridine], the melting point is more than 210 °C. Also, in series [1] (setting [9]), the IC50 came to 0.045 µM. The molecule further gave an IC50 in series [2] of 0.006 µM. Further, the IC50 in series [7] (setting [10]) turned out to be 0.003 µM. Besides, the IC50 in series [6] was 0.0012 µM. In addition, in [3], the IC50 was found to be 0.0022 µM. In [4], the IC50 was more than 0.1 µM. For the same molecule, in series [5], the IC50 amounted to 0.022 µM.

As to `Nc1nccc(-c2c[nH]c3nccc(OC4CCCCC4)c23)n1` [Meriolin 17, 3-[(2-amino)pyrimidin-4-yl]-4-(cyclohexyloxy)-1H-pyrrolo[2,3-b]pyridine], the melting point is more than 210 °C. Moreover, the IC50 in series [1] (setting [9]) was determined as 0.026 µM. Further, the IC50 in [2] worked out at 0.0041 µM. Moreover, the IC50 in [7] (setting [10]) came out at 0.0021 µM. In addition, the IC50 in [6] stood at 0.0021 µM. Also, the IC50 in [3] was 0.0029 µM. In [4], this molecule gave an IC50 of more than 0.1 µM. For the same molecule, in series [5], the IC50 amounted to 0.027 µM.

As to `CCCC#Cc1ccnc2[nH]cc(-c3ccnc(N)n3)c12` [Meriolin 18, 3-[(2-amino)pyrimidin-4-yl]-4-(pent-1-ynyl)-1H-pyrrolo[2,3-b]pyridine], the IC50 turned out to be 0.02 µM in series [1] (setting [9]); 0.082 µM in series [2]; 0.0045 µM in series [7] (setting [10]); 0.005 µM in [6]; 0.011 µM in [3]; 1.3 µM in [4]. Also, in series [5], the IC50 came to 0.1 µM.

As for `CCCCCc1ccnc2[nH]cc(-c3ccnc(N)n3)c12` [Meriolin 19, 3-[(2-amino)pyrimidin-4-yl]-4-pentyl-1H-pyrrolo[2,3-b]pyridine], the melting point was more than 210 °C. In addition, in series [1] (setting [9]), the IC50 is 0.056 µM. The molecule also returned an IC50 in series [2] of 1.75 µM. The IC50 in [7] (setting [10]) was found to be 0.2 µM. Moreover, the IC50 in series [6] came out at 0.195 µM. Moreover, the IC50 in series [3] was 0.35 µM. The IC50 in [4] was 8.1 µM. Moreover, the IC50 in series [5] came out at 13 µM.

`Nc1nccc(-c2c[nH]c3nccc(C#Cc4ccccc4)c23)n1` [Meriolin 21, 3-[(2-amino)pyrimidin-4-yl]-4-(phenyleth-1-ynyl)-1H-pyrrolo[2,3-b]pyridine] gave a melting point of more than 210 °C.

`Nc1nccc(-c2c[nH]c3nccc(CCc4ccccc4)c23)n1` [Meriolin 22, 3-[(2-amino)pyrimidin-4-yl]-4-phenethyl-1H-pyrrolo[2,3-b]pyridine]: the melting point was in the range of 196 to 198 °C. Further, the IC50 in series [1] (setting [9]) was found to be 0.073 µM. Further, the IC50 in series [2] was 0.8 µM. Also, the IC50 in series [7] (setting [10]) worked out at 0.13 µM. The IC50 in series [6] amounted to 0.073 µM. In addition, the IC50 in [3] turned out to be 0.2 µM. In addition, the IC50 in series [5] came out at 2.4 µM.

`Nc1nccc(-c2c[nH]c3nccc(-c4ccccc4)c23)n1` [Meriolin 23, 3-[(2-amino)pyrimidin-4-yl]-4-phenyl-1H-pyrrolo[2,3-b]pyridine] displayed a melting point of more than 210 °C. For the same molecule, the IC50 in [1] (setting [9]) turned out to be 0.05 µM. Moreover, the IC50 in [2] was determined as 0.08 µM. Besides, the IC50 in series [7] (setting [10]) came to 0.007 µM. For the same molecule, the IC50 in series [6] worked out at 0.009 µM. Also, the IC50 in series [3] was 0.01 µM. Further, in series [5], the IC50 amounted to 0.088 µM.

For the molecule `Nc1nccc(-c2c3c(O)ccnc3n3c(N)nccc23)n1` [Variolin B, reference compound], the IC50 came out at 0.08 µM in [1]; 0.07 µM in [2]; 0.09 µM in series [7]; 0.026 µM in [8]; 0.08 µM in series [6]; 0.06 µM in [3]. Besides, the IC50 in series [4] was determined as 0.005 µM; in series [5], 0.24 µM.

For the origin of these results see patent US20100184790A1, “PYRROLO[2,3-B]PYRIDINE COMPOUNDS, AZAINDOLE COMPOUNDS USED FOR SYNTHESIZING SAID PYRROLO[2,3-B]PYRIDINE COMPOUNDS, METHODS FOR THE PRODUCTION THEREOF, AND USES THEREOF” (CENTRE NATIONAL DE LA RECHERCHE SCIENTIFIQUE, priority 2007, published 2010).
